Measured values as given in patent US20250333397A1 (REMIX THERAPEUTICS INC., priority 2021, published 2025).
Read-outs that look alike come from different tables or passages of the source.

How the values were obtained:
Assay type in all cases: cell-based, human
HTT mRNA = assay: RT-qPCR splicing assay, HTT canonical (CJ) and alternative (AJ) junction mRNA; conditions: for AC50: read-out: HTT AJ (AC50, increase in AJ mRNA)
Protocol: (§1) Compounds described herein were used to modulate RNA transcript abundance in cells. The expression of a target mRNA was measured by detecting the formation of an exon-exon junction in the canonical transcript (CJ). A compound mediated exon-inclusion event was detected by observing an increase in formation of a new junction with an alternative exon (AJ). Real-time qPCR assays were used to detect these splicing switches and interrogate the potency of various compounds towards different target genes. A high-throughput real time quantitative PCR (RT-qPCR) assay was developed to measure these two isoforms of the mRNA (CJ and AJ) for exemplary genes, such as HTT, SMN2, and MYB, together with a control housekeeping gene, GAPDH or GUSB or PPIA, used for normalization. Briefly, the A673 or K562 cell line was treated with various compounds described herein (e.g., compounds of Formula (I), (II), (III), (IV)). After treatment, the levels of the HTT, MYB, or SMN2 mRNA targets were determined from each sample of cell lysate by cDNA synthesis followed by qPCR.
(§2) The A673 cell line was cultured in DMEM with 10% FBS. Cells were diluted with full growth media and plated in a 96-well plate (15,000 cells in 100ul media per well). The plate was incubated at 37° C. with 5% CO2 for 24 hours to allow cells to adhere. An 11-point 3-fold serial dilution of the compounds was made in DMSO then diluted in media in an intermediate plate. Compounds were transferred from the intermediate plate to the cell plate with the top dose at a final concentration of 10 uM in the well. Final DMSO concentration was kept at or below 0.25%. The cell plate was returned to the incubator at 37° C. with 5% CO2 for an additional 24 hours.
(§3) The K562 cell line was cultured in IMDM with 10% FBS. For K562, cells were diluted with full growth media and plated in either a 96-well plate (50,000 cells in 50 uL media per well) or a 384-well plate (8,000-40,000 cells in 45 uL media per well). An 11-point 3-fold serial dilution of the compounds were made in DMSO then diluted in media in an intermediate plate.
(§4) Compound was transferred from the intermediate plate to the cell plate with the top dose at a final concentration of 10 uM in the well. Final DMSO concentration was kept at or below 0.25%.
(§5) Final volume was 100 uL for 96-well plate and 50 uL for 384-well plate. The cell plate was then placed in an incubator at 37° C. with 5% CO2 for 24 hours.
(§6) The cells were then gently washed with 50 uL-100 uL cold PBS before proceeding to addition of lysis buffer. 30 uL-50 μL of room temperature lysis buffer with DNAse I (and optionally RNAsin) was added to each well. Cells were shaken/mixed thoroughly at room temperature for 5-10 minutes for lysis to take place and then 3 uL-5 μL of room temperature stop solution was added and wells were shaken/mixed again. After 2-5 minutes, the cell lysate plate was transferred to ice for RT-qPCR reaction setup. The lysates could also be frozen at −80° C. for later use.
(§7) In some cases, a direct lysis buffer was used. An appropriate volume of 3× lysis buffer (10 mM Tris, 150 mM NaCl, 1.5%-2.5% Igepal and 0.1-1 U/uL RNAsin, pH 7.4) was directly added to either K562 or A673 cells in media and mixed by pipetting 3 times. The plates were then incubated at room temperature with shaking/rocking for 20-50 minutes to allow for lysis to take place. After this time, the cell lysate plate was transferred to ice to set up for the RT-qPCR reactions. The lysates could also be frozen at −80° C. for later use.
(§8) To set up 10 uL RT-qPCR reactions, cell lysates were transferred to 384-well qPCR plates containing the master mix according to the table below. The plates were sealed, gently vortexed, and spun down before the run. The volumes were adjusted accordingly in some instances where the reaction was carried in 20 μL. The table below summarizes the components of the RT-qPCR reactions: […]

MYB mRNA = assay: RT-qPCR splicing assay, MYB canonical (CJ) and alternative (AJ) junction mRNA; conditions: for AC50: read-out: MYB AJ (AC50, increase in AJ mRNA)
Protocol: as §1, §2, §3, §4, §5, §6, §7, §8

SMN2 mRNA = assay: RT-qPCR splicing assay panel, SMN2 canonical junction (CJ) mRNA
Protocol: as §1, §2, §3, §4, §5, §6, §7, §8

Target C mRNA = assay: RT-qPCR splicing assay panel, Target C canonical junction (CJ) mRNA
Protocol: as §1, §2, §3, §4, §5, §6, §7, §8

[1] = Homo sapiens, 24 h, Table 3A, A673 or K562 cells, 24 h treatment
[2] = Homo sapiens, 24 h, Table 3A, A673 or K562 cells, 24 h treatment, read-out: HTT CJ (IC50, decrease in CJ mRNA)
[3] = Homo sapiens, canonical junction (CJ) mRNA, RT-qPCR panel, Table 4A, read-out: HTT, decrease in CJ mRNA levels, IC50
[4] = Homo sapiens, 24 h, Table 3A, A673 or K562 cells, 24 h treatment, read-out: MYB CJ (IC50, decrease in CJ mRNA)
[5] = Homo sapiens, canonical junction (CJ) mRNA, RT-qPCR panel, Table 4A, read-out: MYB, decrease in CJ mRNA levels, IC50
[6] = Homo sapiens, canonical junction (CJ) mRNA, RT-qPCR panel, Table 4A, read-out: SMN2, decrease in CJ mRNA levels, IC50
[7] = Homo sapiens, canonical junction (CJ) mRNA, RT-qPCR panel, Table 4A, read-out: Target C, decrease in CJ mRNA levels, IC50
[8] = Table 3A, A673 or K562 cells, 24 h treatment
[9] = Homo sapiens, 24 h, Table 3B, A673 or K562 cells, 24 h treatment
[10] = Homo sapiens, 24 h, Table 3B, A673 or K562 cells, 24 h treatment, read-out: HTT CJ (IC50, decrease in CJ mRNA)
[11] = Homo sapiens, Table 4B, gene panel, read-out: HTT (IC50, decrease in CJ mRNA levels)
[12] = Homo sapiens, 24 h, Table 3B, A673 or K562 cells, 24 h treatment, read-out: MYB CJ (IC50, decrease in CJ mRNA)
[13] = Homo sapiens, Table 4B, gene panel, read-out: MYB (IC50, decrease in CJ mRNA levels)
[14] = Homo sapiens, Table 4B, gene panel, read-out: SMN2 (IC50, decrease in CJ mRNA levels)
[15] = Homo sapiens, Table 4B, gene panel, read-out: Target C (IC50, decrease in CJ mRNA levels)

Row | SMILES | AC50 (HTT mRNA; [1]) [nM] | IC50 (HTT mRNA; [2]) [nM] | IC50 (HTT mRNA; [3]) [nM] | AC50 (MYB mRNA; [1]) [nM] | IC50 (MYB mRNA; [4]) [nM] | IC50 (MYB mRNA; [5]) [nM] | IC50 (SMN2 mRNA; [6]) [nM] | IC50 (Target C mRNA; [7]) [nM] | AC50 (HTT mRNA; [9]) [nM] | IC50 (HTT mRNA; [10]) [nM] | IC50 (HTT mRNA; [11]) [nM] | AC50 (MYB mRNA; [9]) [nM] | IC50 (MYB mRNA; [12]) [nM] | IC50 (MYB mRNA; [13]) [nM] | IC50 (SMN2 mRNA; [14]) [nM] | IC50 (Target C mRNA; [15]) [nM] | other results
1 | COc1cc(-c2ccc(-c3ccc(N4CCC(NC56CC(C5)C6)C4)nn3)c(O)c2)cnn1 (stereo not shown) [Compound 335, 2-[6-(3-{bicyclo[1.1.1]pentan-1-ylamino}pyrrolidin-1-yl)pyridazin-3-yl]-5-(6-methoxypyridazin-4-yl)phenol] | 100 to 1000 | < 100 | < 100 | 1000 to 10000 | 100 to 1000 | 100 to 1000 | 100 to 1000 | 100 to 1000 | – | – | – | – | – | – | – | – | –
2 | COc1cc(-c2ccc(-c3ccc(N4CC[C@@H](NC5(C)CC5)C4)nn3)c(O)c2)cnn1 [Compound 266, 5-(6-methoxypyridazin-4-yl)-2-{6-[(3R)-3-[(1-methylcyclopropyl)amino]pyrrolidin-1-yl]pyridazin-3-yl}phenol] | – | – | – | – | – | – | – | – | – | – | – | – | – | – | – | – | AC50 (HTT mRNA; [8]): < 100 nM; IC50 (HTT mRNA; Table 3A, A673 or K562 cells, 24 h treatment, read-out: HTT CJ (IC50, decrease in CJ mRNA)): < 100 nM; IC50 (HTT mRNA; canonical junction (CJ) mRNA, RT-qPCR panel, Table 4A, read-out: HTT, decrease in CJ mRNA levels, IC50): < 100 nM; AC50 (MYB mRNA; [8]): 100 to 1000 nM; IC50 (MYB mRNA; Table 3A, A673 or K562 cells, 24 h treatment, read-out: MYB CJ (IC50, decrease in CJ mRNA)): 100 to 1000 nM; IC50 (MYB mRNA; canonical junction (CJ) mRNA, RT-qPCR panel, Table 4A, read-out: MYB, decrease in CJ mRNA levels, IC50): 100 to 1000 nM; IC50 (SMN2 mRNA; canonical junction (CJ) mRNA, RT-qPCR panel, Table 4A, read-out: SMN2, decrease in CJ mRNA levels, IC50): < 100 nM; IC50 (Target C mRNA; canonical junction (CJ) mRNA, RT-qPCR panel, Table 4A, read-out: Target C, decrease in CJ mRNA levels, IC50): 100 to 1000 nM
3 | Cn1cc2cc(-c3ccc(N4CCC(NC(C)(C)C)C4)nn3)c(O)cc2n1 (stereo not shown) [Compound 801] | – | – | – | – | – | – | – | – | 1000 to 10000 | 1000 to 10000 | 1000 to 10000 | 1000 to 10000 | 1000 to 10000 | 1000 to 10000 | 100 to 1000 | 1000 to 10000 | –
4 | Cc1ncc2cc(-c3ccc(N4CCC(NC(C)(C)C)C4)nn3)c(O)cc2n1 (stereo not shown) [Compound 818] | – | – | – | – | – | – | – | – | > 10000 | > 10000 | > 10000 | > 10000 | > 10000 | > 10000 | > 10000 | > 10000 | –
5 | CCc1ncc(-c2cc(O)c(-c3ccc(N4CCC(NC5CCC5)C4)nn3)cc2F)s1 (stereo not shown) [Compound 442] | 1000 to 10000 | > 10000 | > 10000 | > 10000 | > 10000 | > 10000 | 1000 to 10000 | > 10000 | – | – | – | – | – | – | – | – | –
6 | Cc1nc2cc(O)c(-c3ccc(N4CC[C@@H](NC(C)(C)C)C4)nn3)cc2o1 [Compound 812] | – | – | – | – | – | – | – | – | < 100 | < 100 | < 100 | 100 to 1000 | 100 to 1000 | 100 to 1000 | < 100 | 100 to 1000 | –
7 | COc1cc(-c2ccc(-c3ccc(N4CC[C@@H](NC5CCC5)C4)nn3)c(O)c2)ncn1 [Compound 364, 2-{6-[(3R)-3-(cyclobutylamino)pyrrolidin-1-yl]pyridazin-3-yl}-5-(6-methoxypyrimidin-4-yl)phenol] | 100 to 1000 | 100 to 1000 | 100 to 1000 | 1000 to 10000 | 100 to 1000 | 100 to 1000 | < 100 | 100 to 1000 | – | – | – | – | – | – | – | – | –
8 | Cc1nc2cc(O)c(-c3cnc(N4CC[C@@H](N(C)C(C)(C)C)C4)nn3)cc2o1 [Compound 856] | – | – | – | – | – | – | – | – | 1000 to 10000 | 100 to 1000 | 100 to 1000 | 1000 to 10000 | 1000 to 10000 | 1000 to 10000 | 100 to 1000 | 1000 to 10000 | –
9 | Cc1ncc(-c2cc(O)c(-c3ccc(N4CC[C@@H](N(C)C(C)(C)C)C4)nn3)cc2F)s1 [Compound 339, 2-{6-[(3R)-3-[tert-butyl(methyl)amino]pyrrolidin-1-yl]pyridazin-3-yl}-4-fluoro-5-(2-methyl-1,3-thiazol-5-yl)phenol] | < 100 | < 100 | < 100 | < 100 | < 100 | < 100 | < 100 | < 100 | – | – | – | – | – | – | – | – | –
10 | COc1cc(-c2ccc(-c3ccc(N4CC[C@H](NC5(C)CCC5)C4)nn3)c(O)c2)ncn1 [Compound 384, 5-(6-methoxypyrimidin-4-yl)-2-{6-[(3S)-3-[(1-methylcyclobutyl)amino]pyrrolidin-1-yl]pyridazin-3-yl}phenol] | < 100 | < 100 | < 100 | 100 to 1000 | 100 to 1000 | 100 to 1000 | < 100 | 100 to 1000 | – | – | – | – | – | – | – | – | –
11 | COc1cc(-c2ccc(-c3ccc(N4CC[C@](C)(NC5CCC5)C4)nn3)c(O)c2)ncn1 [Compound 365, 2-{6-[(3S)-3-(cyclobutylamino)-3-methylpyrrolidin-1-yl]pyridazin-3-yl}-5-(6-methoxypyrimidin-4-yl)phenol] | < 100 | < 100 | < 100 | 100 to 1000 | 100 to 1000 | 100 to 1000 | < 100 | < 100 | – | – | – | – | – | – | – | – | –
12 | Oc1cc(-c2cc(OC(F)(F)F)ncn2)ccc1-c1ccc(N2CCC(NCC3CC3)C2)nn1 (stereo not shown) [Compound 455] | – | – | > 10000 | – | – | > 10000 | > 10000 | > 10000 | – | – | – | – | – | – | – | – | –
13 | Cc1nc(-c2cc(O)c(-c3ccc(N4CCC(NC5CCC5)C4)nn3)cc2F)cs1 (stereo not shown) [Compound 398] | 1000 to 10000 | 1000 to 10000 | 1000 to 10000 | 1000 to 10000 | 1000 to 10000 | 1000 to 10000 | 1000 to 10000 | 1000 to 10000 | – | – | – | – | – | – | – | – | –
